Consider 22 molecules from US8258159B2, “Inhibitors of the α2β1/GPIa-IIa integrin” (The Trustees Of The University Of Pennsylvania, priority 2005, dated 2012).

SMILES strings stand for the structures. *1 amine or outer side, *2 acyl side, *3 side chain or, on linkers, in order; H or OH if unused. Where a SMILES comes first, the peptide text is derived from it. Side-chain parts run from the residue outwards. [ ]: non-standard residue; d: D form. The star is where a group is joined. Tos = Cc1ccc(S(=O)(=O)*)cc1; Dap = NC[C@H](N)C(=O)O; CO = O=C([*:1])[*:2]; NHBn = c1ccc(CN*)cc1; Bz = O=C(c1ccccc1)*

T3 sequence (P56199 29-1179): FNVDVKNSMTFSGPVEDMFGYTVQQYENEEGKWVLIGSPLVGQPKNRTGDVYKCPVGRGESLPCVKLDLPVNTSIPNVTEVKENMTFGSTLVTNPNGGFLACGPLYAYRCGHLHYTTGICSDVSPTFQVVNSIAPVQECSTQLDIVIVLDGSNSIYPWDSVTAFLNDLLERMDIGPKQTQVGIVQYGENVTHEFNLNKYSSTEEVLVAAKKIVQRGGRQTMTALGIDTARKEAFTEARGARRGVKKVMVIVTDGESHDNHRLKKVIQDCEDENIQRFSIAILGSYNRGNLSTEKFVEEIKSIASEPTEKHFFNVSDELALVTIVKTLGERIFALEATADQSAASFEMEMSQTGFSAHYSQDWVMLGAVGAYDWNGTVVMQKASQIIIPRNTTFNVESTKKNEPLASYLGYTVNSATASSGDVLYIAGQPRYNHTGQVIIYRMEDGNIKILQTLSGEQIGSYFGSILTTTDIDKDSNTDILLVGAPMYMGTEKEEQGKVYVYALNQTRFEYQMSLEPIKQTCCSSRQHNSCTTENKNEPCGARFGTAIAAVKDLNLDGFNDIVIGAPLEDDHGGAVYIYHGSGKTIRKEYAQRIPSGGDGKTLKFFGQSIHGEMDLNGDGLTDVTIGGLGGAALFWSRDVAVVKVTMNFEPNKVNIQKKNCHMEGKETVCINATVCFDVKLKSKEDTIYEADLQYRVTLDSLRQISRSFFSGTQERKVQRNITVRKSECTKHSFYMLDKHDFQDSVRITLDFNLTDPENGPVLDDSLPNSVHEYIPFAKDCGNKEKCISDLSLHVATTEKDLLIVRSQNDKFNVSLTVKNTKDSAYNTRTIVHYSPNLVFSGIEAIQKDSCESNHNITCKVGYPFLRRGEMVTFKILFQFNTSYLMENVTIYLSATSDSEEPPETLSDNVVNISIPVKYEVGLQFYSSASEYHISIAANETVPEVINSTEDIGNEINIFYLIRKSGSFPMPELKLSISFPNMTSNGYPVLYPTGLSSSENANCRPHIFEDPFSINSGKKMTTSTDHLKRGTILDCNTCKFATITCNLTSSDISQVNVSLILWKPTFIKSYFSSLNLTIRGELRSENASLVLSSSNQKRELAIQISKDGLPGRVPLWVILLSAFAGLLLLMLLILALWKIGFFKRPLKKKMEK
T3 sequence (P05556 21-798): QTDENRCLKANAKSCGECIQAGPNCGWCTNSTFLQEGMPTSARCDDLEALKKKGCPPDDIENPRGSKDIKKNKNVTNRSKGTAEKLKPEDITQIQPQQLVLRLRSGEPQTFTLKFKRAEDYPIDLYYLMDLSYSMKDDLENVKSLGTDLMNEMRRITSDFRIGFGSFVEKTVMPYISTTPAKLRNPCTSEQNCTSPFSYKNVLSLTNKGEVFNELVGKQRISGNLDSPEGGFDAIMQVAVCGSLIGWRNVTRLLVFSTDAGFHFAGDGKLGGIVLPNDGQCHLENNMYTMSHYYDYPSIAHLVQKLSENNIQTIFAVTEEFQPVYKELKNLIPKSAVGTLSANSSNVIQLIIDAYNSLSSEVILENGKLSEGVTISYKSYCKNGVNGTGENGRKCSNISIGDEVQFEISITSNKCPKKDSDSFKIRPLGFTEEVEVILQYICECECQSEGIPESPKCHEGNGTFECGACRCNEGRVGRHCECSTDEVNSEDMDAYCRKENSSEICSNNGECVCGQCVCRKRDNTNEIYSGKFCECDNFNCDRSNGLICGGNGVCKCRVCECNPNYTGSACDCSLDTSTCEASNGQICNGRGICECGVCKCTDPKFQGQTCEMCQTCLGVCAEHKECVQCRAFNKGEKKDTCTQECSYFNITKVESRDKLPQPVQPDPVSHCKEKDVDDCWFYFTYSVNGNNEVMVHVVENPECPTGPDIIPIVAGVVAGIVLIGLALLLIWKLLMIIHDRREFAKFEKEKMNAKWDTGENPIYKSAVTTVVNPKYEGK

In one experiment the target is T1, α2β1 integrin (Homo sapiens, UniProt P05556+P17301).
T1 construct: endogenous in cells; host or cells: gel-filtered human platelets of a single donor
T1 sequence (P17301 30-1181): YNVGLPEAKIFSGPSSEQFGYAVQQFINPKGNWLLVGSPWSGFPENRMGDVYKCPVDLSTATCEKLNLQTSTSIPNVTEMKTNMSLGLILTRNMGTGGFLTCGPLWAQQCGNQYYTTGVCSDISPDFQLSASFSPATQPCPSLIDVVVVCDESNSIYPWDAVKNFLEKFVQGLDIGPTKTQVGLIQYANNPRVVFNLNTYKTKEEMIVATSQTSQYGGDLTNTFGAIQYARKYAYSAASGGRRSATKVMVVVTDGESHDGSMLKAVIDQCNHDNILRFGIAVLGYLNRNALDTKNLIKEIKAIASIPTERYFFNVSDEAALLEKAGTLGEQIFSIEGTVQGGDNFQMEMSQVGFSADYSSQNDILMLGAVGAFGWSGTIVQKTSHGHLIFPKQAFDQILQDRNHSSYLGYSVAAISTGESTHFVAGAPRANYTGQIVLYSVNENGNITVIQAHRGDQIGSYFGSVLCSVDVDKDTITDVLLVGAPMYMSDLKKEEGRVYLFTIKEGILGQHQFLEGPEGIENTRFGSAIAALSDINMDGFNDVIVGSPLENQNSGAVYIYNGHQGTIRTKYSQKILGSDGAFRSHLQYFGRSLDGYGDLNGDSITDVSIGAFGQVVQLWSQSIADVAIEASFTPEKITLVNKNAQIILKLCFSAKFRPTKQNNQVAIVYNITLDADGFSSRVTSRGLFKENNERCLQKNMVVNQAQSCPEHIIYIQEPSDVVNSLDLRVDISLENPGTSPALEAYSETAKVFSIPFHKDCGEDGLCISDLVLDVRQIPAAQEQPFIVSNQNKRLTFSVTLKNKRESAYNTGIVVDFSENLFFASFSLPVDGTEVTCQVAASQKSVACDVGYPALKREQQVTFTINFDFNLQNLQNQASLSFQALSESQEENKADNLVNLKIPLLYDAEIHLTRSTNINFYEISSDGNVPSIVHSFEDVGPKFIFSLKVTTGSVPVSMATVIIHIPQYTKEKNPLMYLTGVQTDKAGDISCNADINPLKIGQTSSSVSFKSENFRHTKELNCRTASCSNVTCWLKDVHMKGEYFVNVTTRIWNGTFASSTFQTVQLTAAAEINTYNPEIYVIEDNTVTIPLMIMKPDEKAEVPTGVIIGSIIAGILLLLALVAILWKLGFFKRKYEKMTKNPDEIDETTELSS
T1 sequence (P05556 21-798): as the sequence (P05556 21-798) above
Put plainly: Platelet adhesion assay (human platelet adhesion to type I collagen). The note with it: human platelet adhesion to type I (soluble, monomeric) collagen, static conditions; single donor; read-out: IC50. Format: cell-based. On the procedure:
The inhibitory strength of the compounds of the present disclosure was analyzed as against platelet adhesion to type I collagen. Ninety-six well flat bottom microtiter plates (Immulon 2, Dynatech Laboratories, Chantilly, Va.) were coated with collagen, purified human fibrinogen, or bovine serum albumin, each dissolved in 50 mM NaHCO3 buffer, pH 8.0, containing 150 mM NaCl as previously described. See Bennett J S, Chan C, Vilaire G, Mousa S A, DeGrado W F. Agonist-Activated αvβ3 on Platelets and Lymphocytes Binds to the Matrix Protein Osteopontin. J Biol Chem. 272, 8137-814) (1997). Unoccupied protein binding sites on the wells were blocked with 5 mg/ml bovine serum albumin dissolved in the same buffer. Human platelets were isolated from blood anticoagulated with 0.1 volume 3.8% sodium citrate by gel-filtration using a 4 mM HEPES buffer, pH 7.4, containing 135 mM NaCl, 2.7 mM KCl, 5.6 mM glucose, 3.3 mM NaH2PO4, 0.35 mg/ml bovine serum albumin and various concentrations of CaCl2 or MgCl2 according to the experiment. One hundred μl aliquots of the gel-filtered platelet suspension containing 1-2×10^8 platelets were added to the protein-coated wells in the absence or presence of a platelet agonist. Following an incubation for 30 min at 37° C. without agitation, the plates were washed 4 times with the Tris-buffered NaCl, containing 2 mM MgCl2, pH 7.4, and the number of adherent platelets measured using the colorimetric assay reported by Bellavite P, Andrioli G, Guzzo P, et al. A colorimetric method for the measurement of platelet adhesion in microtiter plates. Anal Biochem. 216, 444-450 (1994). Briefly, 150 μl of a 0.1 M citrate buffer, pH 5.4, containing 5 mM p-nitrophenyl phosphate and 0.1% Triton X-100 was added to the wells after washing. After an incubation for 60 min at room temperature in the absence of ambient light, color was developed by the addition of 100 μl of 2N NaOH and, using EL800 Universal Microplate Reader (Bio-Tek Instruments, Inc., Winooski, Vt.), read in microtiter plate reader at 405 nm.
The potencies of the compounds of the present disclosure were determined by testing the ability of a range of concentrations of each compound to inhibit human platelet adhesion to soluble collagen under static conditions. Owing to the fact that soluble collagen is a specific ligand for α2β1 integrin, this is an accepted method of assessing α2β1 inhibition on platelets.
IC50 values were determined by using the platelets of a single donor. In cases where multiple assays were performed, the reported results reflect the average IC50 value derived from the separate assays.
Turning to `O=C(NCc1ccccc1)NC[C@H](NC(=O)[C@@H]1CCCN1C(=O)c1ccccc1)C(=O)O` [Compound 26, 2-[(1-Benzoyl-pyrrolidine-2-carbonyl)-amino]-3-(3-benzyl-ureido)-propionic acid] (Bz-Pro-[Dap]([CO-NHBn])-OH), the IC50 – broadly, the concentration that inhibits the measured activity by half – is 1000 µM. Still for that read-out and setting: the figure for `Cc1ccc(S(=O)(=O)N2CCC[C@H]2C(=O)N[C@@H](CNC(=O)NCc2ccccc2)C(=O)O)cc1` [Compound 27, 3-(3-Benzyl-ureido)-2-{[1-(toluene-4-sulfonyl)-pyrrolidine-2-carbonyl]-amino}-propionic acid] (Tos-Pro-[Dap]([CO-NHBn])-OH) is 0.036 µM; for `O=C(NCc1ccccc1)NC[C@H](NC(=O)[C@@H]1CCCN1S(=O)(=O)c1cccc2ccccc12)C(=O)O` [Compound 28] it is 1.94 µM.

Take `O=C(NCc1ccccc1)NC[C@H](NC(=O)[C@@H]1CCCN1S(=O)(=O)c1ccc2ccccc2c1)C(=O)O` [Compound 29]: the 50% inhibitory concentration (IC50) amounted to 0.9 µM. The same measure, in the same setting: the figure for `O=C(Cc1ccccc1)Nc1ccc(S(=O)(=O)N2CCC[C@H]2C(=O)N[C@@H](CNC(=O)NCc2ccccc2)C(=O)O)cc1` [Compound 32, 3-(3-Benzyl-ureido)-2-{[1-(4-phenylacetylamino-benzenesulfonyl)-pyrrolidine-2-carbonyl]-amino}-propionic acid] is 0.236 µM; for `O=C(NCc1ccccc1)NC[C@H](NC(=O)[C@@H]1CCCN1S(=O)(=O)c1ccc(NC(=O)Nc2ccccc2)cc1)C(=O)O` [Compound 33, 3-(3-Benzyl-ureido)-2-({1-[4-(3-phenyl-ureido)-benzenesulfonyl]-pyrrolidine-2-carbonyl}-amino)-propionic acid] it is 0.151 µM; for `O=C(NCc1ccccc1)NC[C@H](NC(=O)[C@@H]1CCCN1S(=O)(=O)c1ccc2ccccc2c1)C(=O)O` [Compound 34, 3-(3-Benzyl-ureido)-2-{[1-(naphthalene-2-sulfonyl)-pyrrolidine-2-carbonyl]-amino}-propionic acid] it is 0.05 µM.

On to `O=C(NCc1ccccc1Cl)NC[C@H](NC(=O)[C@@H]1CCCN1S(=O)(=O)c1ccccc1)C(=O)O` [Compound 35, 2-[(1-Benzenesulfonyl-pyrrolidine-2-carbonyl)-amino]-3-[3-(2-chloro-benzyl)-ureido]-propionic acid], for which the IC50 amounted to 0.107 µM. For the molecule `O=C(NC[C@H](NC(=O)[C@@H]1CCCN1S(=O)(=O)c1ccccc1)C(=O)O)Nc1ccccc1` [Compound 36, 2-[(1-Benzenesulfonyl-pyrrolidine-2-carbonyl)-amino]-3-(3-phenyl-ureido)-propionic acid], the concentration for half-maximal inhibition (IC50) amounted to 0.296 µM. On the same count and under the same terms, the figure for `O=C(CCc1ccccc1)NC[C@H](NC(=O)[C@@H]1CCCN1S(=O)(=O)c1ccccc1)C(=O)O` [Compound 37, 2-[(1-Benzenesulfonyl-pyrrolidine-2-carbonyl)-amino]-3-(3-phenyl-propionylamino)-propionic acid] is 0.367 µM; for `O=C(NC[C@H](NC(=O)[C@@H]1CCCN1S(=O)(=O)c1ccccc1)C(=O)O)c1ccccc1` [Compound 38, 2-[(1-Benzenesulfonyl-pyrrolidine-2-carbonyl)-amino]-3-benzoylamino-propionic acid] it is 0.66 µM; for `O=C(NC[C@H](NC(=O)[C@@H]1CCCN1S(=O)(=O)c1ccccc1)C(=O)O)OCc1ccccc1` [Compound 39, 2-[(1-Benzenesulfonyl-pyrrolidine-2-carbonyl)-amino]-3-benzyloxycarbonylamino-propionic acid] it is 0.185 µM.

As to `COc1ccccc1CNC(=O)NC[C@H](NC(=O)[C@@H]1CCCN1S(=O)(=O)c1ccccc1)C(=O)O` [Compound 40, 2-[(1-Benzenesulfonyl-pyrrolidine-2-carbonyl)-amino]-3-[3-(2-methoxy-benzyl)-ureido]-propionic acid], the IC50 was 0.467 µM. The same measure, in the same setting: the figure for `COc1cccc(CNC(=O)NC[C@H](NC(=O)[C@@H]2CCCN2S(=O)(=O)c2ccccc2)C(=O)O)c1` [Compound 41, 2-[(1-Benzenesulfonyl-pyrrolidine-2-carbonyl)-amino]-3-[3-(3-methoxy-benzyl)-ureido]-propionic acid] is 0.16 µM; for `CCCNC(=O)NC[C@H](NC(=O)[C@@H]1CCCN1S(=O)(=O)c1ccccc1)C(=O)O` [Compound 42, 2-[(1-Benzenesulfonyl-pyrrolidine-2-carbonyl)-amino]-3-{3-propyl-ureido)-propionic acid] it is 0.367 µM. Same read-out and setting: the figure for `O=C(NCc1ccccc1)NC[C@H](NC(=O)[C@@H]1CCCN1S(=O)(=O)c1cc(F)cc(F)c1)C(=O)O` [Compound 43, 3-(3-Benzyl-ureido)-2-{[1-(3,5-difluoro-benzenesulfonyl)-pyrrolidine-2-carbonyl]-amino}-propionic acid] is 0.035 µM; for `CS(=O)(=O)c1ccc(S(=O)(=O)N2CCC[C@H]2C(=O)N[C@@H](CNC(=O)NCc2ccccc2)C(=O)O)cc1` [Compound 44, 3-(3-Benzyl-ureido)-2-{[1-(4-methanesulfonyl-benzenesulfonyl)-pyrrolidine-2-carbonyl]-amino}-propionic acid] it is 0.07 µM; for `CC(C)(C)NC(=O)NC[C@H](NC(=O)[C@@H]1CCCN1S(=O)(=O)c1ccccc1)C(=O)O` [Compound 45, 2-[(1-Benzenesulfonyl-pyrrolidine-2-carbonyl)-amino]-3-(3-tert-butyl-ureido)-propionic acid] it is 0.185 µM. Same read-out and setting: the figure for `O=C(NCc1ccccc1)NC[C@H](NC(=O)[C@@H]1C[C@@H](OCc2ccccc2)CN1S(=O)(=O)c1ccccc1)C(=O)O` [Compound 46, 2-[(1-Benzenesulfonyl-4-benzyloxy-pyrrolidine-2-carbonyl)-amino]-3-(3-benzyl-ureido)-propionic acid] is 0.24 µM. Regarding `O=C(NCc1ccccc1)NC[C@H](NC(=O)[C@@H]1C[C@@H](O)CN1S(=O)(=O)c1ccccc1)C(=O)O` [Compound 47, 2-[(1-Benzenesulfonyl-4-hydroxy-pyrrolidine-2-carbonyl)-amino]-3-(3-benzyl-ureido)-propionic acid], the half-maximal inhibitory concentration (IC50) was 0.034 µM. Regarding `O=C(NCc1ccccc1)NC[C@H](NC(=O)[C@@H]1CCCN1S(=O)(=O)c1cc(C(F)(F)F)cc(C(F)(F)F)c1)C(=O)O` [Compound 49, 3-(3-Benzyl-ureido)-2-{[1-(3,5-bis-trifluoromethyl-benzenesulfonyl)-pyrrolidine-2-carbonyl]-amino}-propionic acid], the IC50 was 0.039 µM. `O=C(NCc1ccccc1)NC[C@H](NC(=O)C1CCCCN1S(=O)(=O)c1ccccc1)C(=O)O` (stereo partly shown) [Compound 51, 2-[(1-Benzenesulfonyl-piperidine-2-carbonyl)-amino]-3-(3-benzyl-ureido)-propionic acid]: the IC50 stood at 0.056 µM.

In the next experiment the target is T2, α4β1 (Homo sapiens, UniProt P05556+P13612).
T2 construct: Jurkat cells expressing α4β1; Marcinkiewicz (Temple University, Philadelphia, Pa.); host or cells: Jurkat
T2 sequence (P13612 34-1032): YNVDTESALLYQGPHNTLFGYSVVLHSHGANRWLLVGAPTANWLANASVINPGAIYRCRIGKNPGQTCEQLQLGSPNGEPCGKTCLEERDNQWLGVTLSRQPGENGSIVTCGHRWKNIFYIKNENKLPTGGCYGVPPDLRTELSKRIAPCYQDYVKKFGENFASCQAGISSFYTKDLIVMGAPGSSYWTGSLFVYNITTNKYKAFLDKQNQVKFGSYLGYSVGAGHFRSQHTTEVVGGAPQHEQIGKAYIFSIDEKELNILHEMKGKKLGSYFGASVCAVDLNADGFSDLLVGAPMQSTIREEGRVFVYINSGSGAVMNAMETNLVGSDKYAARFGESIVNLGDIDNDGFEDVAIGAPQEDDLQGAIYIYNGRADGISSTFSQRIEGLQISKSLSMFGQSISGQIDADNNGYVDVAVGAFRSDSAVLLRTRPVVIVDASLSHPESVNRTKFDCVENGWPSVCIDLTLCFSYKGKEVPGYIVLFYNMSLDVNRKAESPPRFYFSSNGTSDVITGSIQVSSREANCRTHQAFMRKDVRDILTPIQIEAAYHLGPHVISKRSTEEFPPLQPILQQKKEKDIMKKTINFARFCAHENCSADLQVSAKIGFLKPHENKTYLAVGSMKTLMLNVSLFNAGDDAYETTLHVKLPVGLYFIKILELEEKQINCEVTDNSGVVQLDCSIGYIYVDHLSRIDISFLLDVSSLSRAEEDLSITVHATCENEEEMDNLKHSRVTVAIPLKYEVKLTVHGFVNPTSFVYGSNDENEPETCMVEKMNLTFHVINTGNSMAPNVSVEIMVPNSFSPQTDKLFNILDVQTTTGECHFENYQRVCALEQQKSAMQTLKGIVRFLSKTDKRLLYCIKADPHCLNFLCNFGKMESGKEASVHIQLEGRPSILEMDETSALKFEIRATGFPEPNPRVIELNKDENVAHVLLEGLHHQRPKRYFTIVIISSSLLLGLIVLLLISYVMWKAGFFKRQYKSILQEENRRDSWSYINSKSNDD
T2 sequence (P05556 21-798): as the sequence (P05556 21-798) above
The experiment is described as follows: Cell adhesion assay to assess specificity: Jurkat cells on VCAM. In kind it is cell-based.
Conditions: not given
The method, then:
(§1) The ligands (3 μg/ml of collagen IV for […] or 3 μg/ml of collagen I for α2β1) for the test designed to assess the specificity of representative embodiments of the instant compounds for the α2β1 integrin were immobilized on 96-well flat microtiter plates (100 μl for each well) in PBS buffer solution overnight at 4° C. In the case of VCAM (3 μg/ml, for α4β1) and fibronectin (10 μg/ml, for α5β1), 20 mM acetic acid was used instead of PBS buffer solution. As those skilled in the art will recognize, VCAM is a known endothelial ligand for α4β1/VLA-4, and fibronectin is a known ligand for […]. In the case of α1β1 and α2β1, blocking was performed with 1% BSA in HBSS buffer solution containing Mg^2+ (but without Ca^2+) for 1 hour. In the case of α4β1 and α5β1, 1% BSA in HyQ HBSS buffer solution containing Ca^2+ and Mg^2+ was used. […] After centrifugation and washing with buffer solution containing 1% BSA, cells were re-suspended in same buffer solution (1×10^6 cells/ml) and incubated in the presence of a different concentration of inhibitors at room temperature for 15 minutes. Cells were added to the wells (100 μl/well) and incubated at 37° C. for 30 minutes. Unbound cells were washed out and bound cells were lysed by the addition of 0.5% Triton X-100.
(§2) The K562 cells expressing α5β1 integrin, Jurkat cells expressing α4β1, and K562 cells transfected with α1 and α2 integrins were provided by Dr. C. Marcinkiewicz (Temple University, Philadelphia, Pa.).
(§3) Plates were read using a Cytofluor 2350 fluorescence plate reader (Millipore, Bedford, Mass.) with a 485 nm (excitation) and 530 nm (emission).
Consider `O=C(NCc1ccccc1)NC[C@H](NC(=O)[C@@H]1CCCN1S(=O)(=O)c1ccc2ccccc2c1)C(=O)O` [Compound 29], for which the half-maximal inhibitory concentration (IC50) was found to be 4330 nM.

The next experiment addresses T3, α1β1 (Homo sapiens, UniProt P05556+P56199).
T3 construct: Marcinkiewicz (Temple University, Philadelphia, Pa.); host or cells: K562
Put plainly: Cell adhesion assay to assess specificity: α1-transfected K562 cells on collagen IV. In kind it is cell-based. The note with it: read-out: % inhibition at 3 μM, α1β1. On the procedure:
as §1, §2, §3
As for `O=C(NCc1ccccc1)NC[C@H](NC(=O)[C@@H]1CCCN1S(=O)(=O)c1ccc2ccccc2c1)C(=O)O` [Compound 29], the inhibition (in general, the share of the control response that was lost under treatment) at 3 µM turned out to be 30%.

In a further experiment the target is T4, α2β1 (Homo sapiens, UniProt P05556+P17301).
T4 construct: Marcinkiewicz (Temple University, Philadelphia, Pa.); host or cells: K562
T4 sequence (P17301 30-1181): as the sequence (P17301 30-1181) above
T4 sequence (P05556 21-798): as the sequence (P05556 21-798) above
Put plainly: Cell adhesion assay to assess specificity: α2-transfected K562 cells on collagen I. Format: cell-based.
Conditions: not given
On the procedure: as §1, §2, §3
In turn, `O=C(NCc1ccccc1)NC[C@H](NC(=O)[C@@H]1CCCN1S(=O)(=O)c1ccc2ccccc2c1)C(=O)O` [Compound 29] came in with a half-inhibitory concentration (IC50) of 177 nM.
